Key:
[1] = molecular target: recombinant human 11β-HSD type 1 enzyme (Homo sapiens, UniProt P28845); assay: 11β-HSD Type 1 Enzyme Assay (NADPH fluorescence); format: biochemical; settings: three hour incubation, read-out: Human 11-βHSD1 IC50
Description: 11β-HSD Type 1 Enzyme Assay
Human 11β-HSD type 1 activity is measured by assaying NADPH production by fluorescence assay. Solid compounds are dissolved in DMSO to a concentration of 10 mM. Twenty microliters of each are then transferred to a column of a 96-well polypropylene Nunc plate where they are further diluted 50-fold followed by subsequent two-fold titration, ten times across the plate with additional DMSO using a Tecan Genesis 200 automated system. Plates are then transferred to a Tecan Freedom 200 system with an attached Tecan Temo 96-well head and an Ultra 384 plate reader. Reagents are supplied in 96-well polypropylene Nunc plates and are dispensed individually into black 96-well Molecular Devices High Efficiency assay plates (40 μL/well capacity) in the following fashion: 9 μL/well of substrate (2.22 mM NADP, 55.5 μM Cortisol, 10 mM Tris, 0.25% Prionex, 0.1% Triton X100), 3 μL/well of water to compound wells or 3 μL to control and standard wells, 6 μL/well recombinant human 11β-HSD type 1 enzyme, 2 μL/well of compound dilutions. […] Final DMSO concentration is 0.5% for all compounds, controls and standards. […] Plates are then shaken once more for 15 seconds then placed into an Ultra 384 microplate reader (355EX/460EM) for detection of NADPH fluorescence.

[2] = system: cortisone to cortisol conversion (11β-HSD1) in male C57BL/6 mice; assay: Acute In Vivo Cortisone Conversion Assay; settings: oral dose of 10 mg/kg, cortisone challenge 16 hours post dose, serum cortisol
Description: Acute In Vivo Cortisone Conversion Assay
In general, compounds are dosed orally into mice, the mice are challenged with a subcutaneous injection of cortisone at a set timepoint after compound injection, and the blood of each animal is collected some time later. Separated serum is then isolated and analyzed for levels of cortisone and cortisol by LC-MS/MS, followed by calculation of mean cortisol and percent inhibition of each dosing group. Specifically, male C57BL/6 mice are obtained from Harlan Sprague Dawley at average weight of 25 grams. Exact weights are taken upon arrival and the mice randomized into groups of similar weights. Compounds are prepared in 1% w-w HEC, 0.25% w-w polysorbate 80, 0.05% w-w Dow Corning antifoam #1510-US at various doses based on assumed average weight of 25 grams. Compounds are dosed orally, 200 μl per animal, followed by a subcutaneous dose, 200 μl per animal, of 30 mg/kg cortisone at 1 to 24 hours post compound dose. At 10 minutes post cortisone challenge, each animal is euthanized for 1 minute in a CO2 chamber, followed by blood collection via cardiac puncture into serum separator tubes. Once fully clotted, tubes are spun at 2500×g, 4° C. for 15 minutes, the serum transferred to wells of 96-well plates (Corning Inc, Costar #4410, cluster tubes, 1.2 ml, polypropylene), and the plates are frozen at −20° C. until analysis by LC-MS/MS. […]

[3] = molecular target: T1, 11β-HSD1 in primary human aortic smooth muscle cells (AoSMC) (Homo sapiens, UniProt P28845); assay: Human Aortic Smooth Muscle Cell Assay (cortisone to cortisol conversion); format: cell-based; settings: AoSMC induced with hTNFα; cortisol by time resolved immunoassay
T1 construct: containing 12 ng/mL hTNFα to induce expression of 11β-HSD1; endogenous in cells; host or cells: primary human aortic smooth muscle cells (AoSMC), induced with hTNFα
Description: Human Aortic Smooth Muscle Cell Assay
Primary human aortic smooth muscle cells (AoSMC) are cultured in 5% FBS growth medium to a passage number of 6, then pelleted by centrifugation and resuspended at a density of 9×10^4 cells/mL in 0.5% FBS assay medium containing 12 ng/mL hTNFα to induce expression of 11β-HSD1. Cells are seeded into 96-well tissue culture assay plates at 100 μL/well (9×10^3 cells/well) and incubated for 48 hours at 37° C., 5% CO2. Following induction, cells are incubated for 4 hours at 37° C., 5% CO2 in assay medium containing test compounds then treated with 10 μL/well of 10 μM cortisone solubilized in assay medium, and incubated for 16 hours at 37° C., 5% CO2. Medium from each well is transferred to a plate for subsequent analysis of cortisol using a competitive fluorescence resonance time resolved immunoassay. In solution, an allophycocyanin (APC)-cortisol conjugate and free cortisol analyte compete for binding to a mouse anti-cortisol antibody/Europium (Eu)-anti mouse IgG complex. Higher levels of free cortisol result in diminishing energy transfer from the Europium-IgG to the APC-cortisol complex resulting in less APC fluorescence. Fluorescent intensities for Europium and APC are measured using a LJL Analyst AD. Europium and APC excitation is measured using 360 nm excitation and 615 nm and 650 nm emission filters respectively. Time resolved parameters for Europuium were 1000 μs integration time with a 200 μs delay. APC parameters are set at 150 μs integration time with a 50 μs delay. Fluorescent intensities measured for APC are modified by dividing by the Eu fluorescence (APC/Eu). This ratio is then used to determine the unknown cortisol concentration by interpolation using a cortisol standard curve fitted with a 4-parameter logistic equation. These concentrations are then used to determine compound activity by plotting concentration versus % inhibition, fitting with a 4-parameter curve and reporting the IC50.

T1 sequence (P28845 whole entry): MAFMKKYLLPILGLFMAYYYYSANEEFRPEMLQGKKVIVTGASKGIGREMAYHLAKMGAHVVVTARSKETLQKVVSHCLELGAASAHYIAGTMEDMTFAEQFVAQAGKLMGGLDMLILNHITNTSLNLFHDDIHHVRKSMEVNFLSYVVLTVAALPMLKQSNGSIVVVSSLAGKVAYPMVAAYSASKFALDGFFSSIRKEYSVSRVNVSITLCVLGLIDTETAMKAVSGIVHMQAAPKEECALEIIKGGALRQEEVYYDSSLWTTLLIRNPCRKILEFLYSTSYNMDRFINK
Sequence of recombinant human 11β-HSD type 1 enzyme (P28845 whole entry): as above

O=C(c1ccc(-c2cc(Cl)c(CC3CCN(C4CCCCC4)C3=O)c(Cl)c2)cc1)N1CCN(CCF)CC1 (single isomer, unassigned) [Example 62, 1-cyclohexyl-3-{3,5-dichloro-4′-[4-(2-fluoro-ethyl)-piperazine-1-carbonyl]-biphenyl-4-ylmethyl}-pyrrolidin-2-one]
IC50 [1]: 115 nM | % Inhibition after 16 hours (dose of 10 (mg/kg)) [2]: 85%

O=C(c1ccc(-c2cc(Cl)c(CC3CCN(C4CCCCC4)C3=O)c(Cl)c2)cc1)N1CCOCC1 (stereo not shown) [Example 4, 1-Cyclohexyl-3-[3,5-dichloro-4′-(morpholine-4-carbonyl)-biphenyl-4-ylmethyl]-pyrrolidin-2-one]
IC50 [3]: 4.3 nM

COCCN(CCOC)C(=O)c1ccc(-c2cc(Cl)c(CC3CCN(C4CCCCC4)C3=O)c(Cl)c2)cc1 (stereo not shown) [Example 5]
IC50 [3]: 6.4 nM

O=C(c1ccc(-c2cc(Cl)c(CC3CCN(C4CCCCC4)C3=O)c(Cl)c2)cc1)N1CCNCC1 (stereo not shown) [Example 49, 1-cyclohexyl-3-[3,5-dichloro-4′-(piperazine-1-carbonyl)-biphenyl-4-ylmethyl]-pyrrolidin-2-one]
IC50 [3]: 11.4 nM

O=C(c1ccc(-c2cc(Cl)c(CC3CCN([C@H]4CC[C@@H](O)CC4)C3=O)c(Cl)c2)cc1)N1CCS(=O)(=O)CC1 (stereo partly drawn) [Example 74, 3-[3,5-Dichloro-4′-(1,1-dioxo-1-lambda*6*-thiomorpholine-4-carbonyl)-biphenyl-4-ylmethyl]-cis-1-(4-hydroxy-cyclohexyl)-pyrrolidin-2-one]
IC50 [3]: 6 nM

O=C(c1ccc(-c2cc(Cl)c(C[C@@H]3CCN(C4CC=CCC4)C3=O)c(Cl)c2)cc1)N1CCC(C(F)(F)F)CC1 (stereo partly drawn) [Example 92, (R)-1-cyclohex-3-enyl-3-[3,5-dichloro-4′-(4-trifluoromethyl-piperidine-1-carbonyl)-biphenyl-4-ylmethyl]-pyrrolidin-2-one]
IC50 [1]: 633 nM | IC50 [3]: 36.8 nM

O=C(c1ccc(-c2cc(Cl)c(C[C@@H]3CCN(C4CCOCC4)C3=O)c(Cl)c2)cc1)N1CCC(C(F)(F)F)CC1 [Example 95, (R)-3-[3,5-dichloro-4′-(4-trifluoromethyl-piperidine-1-carbonyl)-biphenyl-4-ylmethyl]-1-(tetrahydro-pyran-4-yl)-pyrrolidin-2-one]
% Inhibition after 16 hours (dose of 10 (mg/kg)) [2]: 80%

O=C(c1ccc(-c2cc(Cl)c(C[C@@H]3CCN(C4CCOCC4)C3=O)c(Cl)c2)cc1)N1CCS(=O)(=O)CC1 [Example 99, (R)-3-[3,5-Dichloro-4′-(1,1-dioxo-116-thiomorpholine-4-carbonyl)-biphenyl-4-ylmethyl]-1-(tetrahydro-pyran-4-yl)-pyrrolidin-2-one]
IC50 [3]: 72.8 nM

Source: patent publication US8088776B2 (Eli Lilly and Company, priority 2006, dated 2012)
